Here are results for 26 compounds from ChEMBL document CHEMBL4765246, “Design, synthesis and biological evaluation of quinoxaline compounds as anti-HIV agents targeting reverse transcriptase enzyme” (Eur J Med Chem, 2020).

Structures are written as SMILES. pEC50, pIC50: −log10 of the molar value.

What is called inhibition is the drop in the measured response relative to a control, in per cent. The term CC50 denotes the concentration giving 50% cytotoxicity. The term pEC50 denotes the negative decadic logarithm of the EC50, by convention in mol/L. In general, pIC50 refers to −log10 of the IC50, conventionally taken in molar units.

In data set [1] the test system is Human immunodeficiency virus type 1 BH10. Kind of data set: Inhibition of wild type recombinant HIV-1 subtype B BH10 p66/p51 reverse transcriptase heterodimer expressed in Escherichia coli BL21 (DE3) assessed as inhibition of dTTP incorporation on poly(rA)-oligo(dT) template primer duplex at 10 uM preincubated with enzyme for 2 mins followed by incubation with poly(A)-oligo(dT) templates for 2 hrs by flourescence assay method. The settings on record: time 122.0 min.

The test system is the same in data set [2]. Kind of data set: Inhibition of wild type recombinant HIV-1 subtype B BH10 p66/p51 reverse transcriptase heterodimer expressed in Escherichia coli BL21 (DE3) assessed as inhibition of dTTP incorporation on poly(rA)-oligo(dT) template primer duplex at 100 uM preincubated with enzyme for 2 mins followed by incubation with poly(A)-oligo(dT) templates for 2 hrs by flourescence assay method. The following applies: time 122.0 min.

Data set [3] in a line: Cytotoxicity against human MT2 cells assessed as reduction in cell viability measured after 4 days by Trypan blue assay. In kind it is cell-based. The following applies: time 4 day.
The nature of data set [4]: Anti-HIV-1 activity against HTLV-3B infected in human MT2 cells assessed as reduction in syncytium formation by measuring reduction in p24 antigen production measured after 4 days by ELISA method. In kind it is functional, cell-based. The settings on record: Human immunodeficiency virus 1, HTLV-3B, MT2, 96 h. On the technique in general: ELISA stands for enzyme-linked immunosorbent assay.

Data set [5] concerns Human immunodeficiency virus type 1 BH10. Put plainly: Inhibition of recombinant HIV-1 subtype B BH10 p66/p51 reverse transcriptase heterodimer K103N mutant assessed as inhibition of dTTP incorporation on poly(rA)-oligo(dT) template primer duplex at 50 uM preincubated with enzyme for 2 mins followed by incubation with poly(A)-oligo(dT) templates for 2 hrs by flourescence assay method. The settings on record: time 122.0 min.

Data set [6] is described as follows: Inhibition of wild type recombinant HIV-1 subtype B BH10 p66/p51 reverse transcriptase heterodimer expressed in Escherichia coli BL21 (DE3) assessed as inhibition of dTTP incorporation on poly(rA)-oligo(dT) template primer duplex preincubated with enzyme for 2 mins followed by incubation with poly(A)-oligo(dT) templates for 2 hrs by flourescence assay method. The arrangement: species or system Human immunodeficiency virus type 1 BH10.

The subject of data set [7] is Human immunodeficiency virus type 1 BH10. Put plainly: Selectivity for inhibition of wild type recombinant HIV-1 subtype B BH10 p66/p51 reverse transcriptase heterodimer expressed in Escherichia coli BL21 (DE3) at 50 uM over inhibition of recombinant HIV-1 subtype B BH10 p66/p51 reverse transcriptase heterodimer K103N mutant at 50 uM by fluorescence based assay.
Data set [8] in a line: Selectivity index, ratio of CC50 for human MT2 cells to EC50 for anti-HIV-1 activity against HTLV-3B infected in human MT2 cells. The class given is toxicity, cell-based. The settings on record: read-out: Ratio CC50/EC50.

With `CCOC(=O)CCc1nc2ccccc2nc1O`, the inhibition in data set [1] came to 15%; in data set [2], 12%.

As for `Oc1nc2ccccc2nc1Cc1ccccc1`, the inhibition came out at 10% in data set [1] and 26% in data set [2].

For the compound `CC(C)COC(=O)N1CC(=O)Nc2ccccc21`, the CC50 at 96 h in data set [3] worked out at 262 µM. Also, the inhibition in data set [1] stood at 20%; in data set [2], 46%. The pEC50 in data set [4] is less than 5.00.

With `COC(=O)CCc1nc2ccccc2nc1O`, the inhibition in data set [1] came to 8%; in data set [2], 23%.

Turning to `O=C1CN(C(=O)c2ccccc2)c2ccccc2N1`, the inhibition in data set [1] was 14%; in data set [2], 33%.

With `CC(=O)N1CC(=O)Nc2ccccc21`, the inhibition in data set [1] was 7%; in data set [2] it was 56%.

Take `C[C@H]1C(=O)Nc2ccccc2N1C(=O)CCCl`: the inhibition was determined as 15% in data set [1] and 28% in data set [2].

For `CC(C)OC(=O)CCc1nc2ccccc2nc1O`, the inhibition in data set [1] was 21%; in data set [2], 25%.

In the case of `Oc1nc2ccccc2nc1O`, the inhibition is 8% in data set [1] and 1% in data set [2].

Take `CC(C)[C@H]1C(=O)Nc2ccccc2N1C(=O)CCl`: the inhibition in data set [1] turned out to be 5%; in data set [2], 12%.

With `O=C(O)CCc1nc2ccccc2[nH]c1=O`, the inhibition is 20% in data set [1] and 15% in data set [2].

`CC(C)Cc1nc2ccccc2[nH]c1=O`: in data set [3], the CC50 at 96 h stood at 134 µM. The inhibition in data set [1] worked out at 15%; in data set [2], 73%; in data set [5], 5%. For the same compound, the pIC50 in data set [6] is 4.64. Moreover, the Selectivity ratio in data set [7] turned out to be 16. Also, in data set [4], the pEC50 is less than 5.00.

Regarding `O=C1CN(C(=O)CCCl)c2ccccc2N1`, the inhibition in data set [1] turned out to be 12%; in data set [2] it was 26%.

`CC(C)C[C@H]1C(=O)Nc2ccccc2N1C(=O)CCCl`: the inhibition is 10% in data set [1] and 20% in data set [2].

Take `CCC(=O)N1CC(=O)Nc2ccccc21`: the CC50 at 96 h in data set [3] worked out at 98.6 µM. Also, in data set [8], the selectivity ratio stood at 31800. The inhibition in data set [1] was found to be 91%; in data set [2], 99%; in data set [5], 47%. Moreover, the pIC50 in data set [6] is 6.20. Further, the Selectivity ratio in data set [7] was determined as 2. Besides, the pEC50 in data set [4] was 8.51.

Take `CCC(=O)N1c2ccccc2NC(=O)[C@@H]1C`: the inhibition in data set [1] amounted to 7%; in data set [2], 23%.

Turning to `CC(C)OC(=O)N1CC(=O)Nc2ccccc21`, the results for the inhibition in data set [1] and in data set [2] were 20% and 19%, respectively.

For `O=C1CN(C(=O)CCl)c2ccccc2N1`, the inhibition in data set [1] was determined as 24%; in data set [2], 32%.

As for `CC(C)COC(=O)N1c2ccccc2NC(=O)[C@@H]1CC(C)C`, the inhibition in data set [1] was 22%; in data set [2], 51%; in data set [5], 20%. Moreover, the pIC50 in data set [6] was 4.17. In addition, the Selectivity ratio in data set [7] turned out to be 3.

Turning to `O=C1CN(S(=O)(=O)c2ccccc2)c2ccccc2N1`, the figures for the inhibition in data set [1] and in data set [2] were 14% and 12%, respectively.

Take `C[C@H]1CNc2ccccc2N1C(=O)CCl`: the inhibition in data set [1] and in data set [2] was 8% throughout.

With `Cc1nc2ccccc2nc1O`, the inhibition in data set [1] came to 3%; in data set [2], 1%.

In the case of `CC(C)c1nc2ccccc2[nH]c1=O`, the inhibition in data set [1] was determined as 12%; in data set [2] it was 17%.

`Cc1ccnc2c1NC(=O)c1cccnc1N2C1CC1` [NEVIRAPINE]: the CC50 at 96 h in data set [3] came out at 96.2 µM. In addition, the selectivity ratio in data set [8] came to 14400. The inhibition was found to be 91% in data set [1], 98% in data set [2] and 50% in data set [5]. Besides, the pIC50 in data set [6] was 6.89. In data set [7], the Selectivity ratio was determined as 2. Besides, in data set [4], the pEC50 was 8.17.

Regarding `CC(C)COC(=O)N1c2ccccc2NC(=O)[C@@H]1C`, the CC50 at 96 h in data set [3] was 117 µM. Further, the selectivity ratio in data set [8] was found to be 74. Besides, the values for the inhibition in data set [1], in data set [2] and in data set [5] were 37%, 64% and 13%, respectively. In addition, the pIC50 in data set [6] is 4.19. Moreover, in data set [7], the Selectivity ratio turned out to be 5. The pEC50 in data set [4] is 5.80.

Regarding `CC(C)[C@H]1C(=O)Nc2ccccc2N1C(=O)CCCl`, the inhibition in data set [1] and in data set [2] was 7% in each case.
